From US7071226B1, “Amino-functionalized 1,2,4-trioxanes useful as antimalarial agents and process for preparation thereof” (Council of Scientific and Industrial Research, priority 2004, dated 2006)
Read-outs that look alike come from different tables or passages of the source.

Test system: multidrug resistant strain of Plasmodium yoelii Nigeriensis
Experiment: Antimalarial activity against multidrug resistant P. yoelii in Swiss mice (4-day treatment, observed till day 28)
Format: in vivo
Settings: for inhibition in vivo at 96 mg/kg/day / responders at 96 mg/kg/day / inhibition in vivo at 48 mg/kg/day / responders at 48 mg/kg/day / inhibition in vivo at 24 mg/kg/day / responders at 24 mg/kg/day / inhibition in vivo at 12 mg/kg/day / responders at 12 mg/kg/day: Plasmodium yoelii; for inhibition in vivo at 96 mg/kg/day / inhibition in vivo at 48 mg/kg/day / inhibition in vivo at 24 mg/kg/day / inhibition in vivo at 12 mg/kg/day: 96 h, read-out: % Suppression on Day 4; for responders at 96 mg/kg/day / responders at 48 mg/kg/day / responders at 24 mg/kg/day / responders at 12 mg/kg/day: 672 h
Description: The antimalarial activity of the test compounds was evaluated in rodent using multidrug resistant strain of Plasmodium yoelii Nigeriensis in Swiss mice.
Random bred Swiss mice of either sex (20±2 gm) were inoculated intraperitoneally with 1×10^5 P. yoelii (MDR) parasites on day zero. Treatments with test compounds were administered to group of 5 mice each at different dose levels ranging between 12–96 mg/kg/day. Treatment was administered in groundnut oil intramuscularly and orally for 4 consecutive days (day 0–3). Blood smears from experimental mice were observed on day 4 and 7, day 10 and thereafter at regular intervals till day 28 or death of animal. Parasitaemia level on day 4 was compared with vehicle control group and percent suppression of parasitaemia in treated groups was calculated. […] The dose at which no parasitaemia develop during the observation period was reported as curative dose.

[1] = im, Swiss mice, 96 mg/kg/day, im, day 0-3, in groundnut oil
[2] = im, Swiss mice, 96 mg/kg/day, im, day 0-3, read-out: Mice alive on day-28 (converted)
[3] = po, Swiss mice, 48 mg/kg/day, oral, day 0-3, in groundnut oil
[4] = po, Swiss mice, 96 mg/kg/day, oral, day 0-3, in groundnut oil
[5] = po, Swiss mice, 48 mg/kg/day, oral, day 0-3, read-out: Mice alive on day-28 (converted)
[6] = po, Swiss mice, 96 mg/kg/day, oral, day 0-3, read-out: Mice alive on day-28 (converted)
[7] = po, Swiss mice, 24 mg/kg/day, oral, day 0-3, in groundnut oil
[8] = po, Swiss mice, 24 mg/kg/day, oral, day 0-3, read-out: Mice alive on day-28 (converted)
[9] = po, Swiss mice, oral, day 0-3, in groundnut oil
[10] = po, Swiss mice, oral, day 0-3, read-out: Mice alive on day-28
[11] = Swiss mice, 48 mg/kg/day, oral, day 0-3, 48 mg/kg/day
[12] = Swiss mice, 48 mg/kg/day, oral, day 0-3, in groundnut oil
[13] = Swiss mice, 24 mg/kg/day, oral, day 0-3
[14] = Swiss mice, 24 mg/kg/day, oral, day 0-3, in groundnut oil
[15] = po, read-out: Mice alive on day-28

SMILES | inhibition in vivo at 96 mg/kg/day [1] | responders at 96 mg/kg/day [2] | inhibition in vivo at 48 mg/kg/day [3] | inhibition in vivo at 96 mg/kg/day [4] | responders at 48 mg/kg/day [5] | responders at 96 mg/kg/day [6] | inhibition in vivo at 24 mg/kg/day [7] | responders at 24 mg/kg/day [8] | also measured
C=C(c1ccc(C)cc1)C1COC2(CCC(Nc3ccc(-c4ccccc4)cc3)CC2)OO1 (stereo not drawn) [Compound 4ej, Biphenyl-4-yl-[3-(1-p-tolyl-vinyl)-1,2,5-trioxa-spiro[5.5]undec-9-yl]-amine] | 69% | 0% | 100% | 100% | 40% | 100% | – | – | –
C=C(c1ccc(Cl)cc1)C1COC2(CCC(Nc3cccc(C(F)(F)F)c3)CC2)OO1 (stereo not drawn) [Compound 4co, {3-[1-(4-Chloro-phenyl)-vinyl]-1,2,5-trioxa-spiro[5.5]undec-9-yl}-(3-trifluoromethyl-phenyl)-amine] | 73% | 0% | 100% | 100% | 100% | 100% | 100% | 60% | –
C=C(c1ccc(OC)cc1)C1COC2(CCC(Nc3ccccc3)CC2)OO1 (stereo not drawn) [Compound 4da, {3-[1-(4-Methoxy-Phenyl)-Vinyl]-1,2,5-Trioxa-Spiro[5.5]undec-9-yl}-Phenyl-Amine] | 81% | 0% | – | 100% | – | 0% | – | – | –
C=C(c1ccc(OC)cc1)C1COC2(CCC(Nc3ccc(Cl)cc3)CC2)OO1 (stereo not drawn) [Compound 4dc, (4-Chloro-Phenyl)-{3-[1-(4-Methoxy-Phenyl)-Vinyl]-1,2,5-Trioxa-Spiro[5.5]undec-9-yl}-Amine] | 100% | 80% | 100% | 100% | 100% | 100% | 100% | 80% | –
C=C(c1ccc(C)cc1)C1COC2(CCC(Nc3cccc(C(F)(F)F)c3)CC2)OO1 (stereo not drawn) [Compound 4en, [3-(1-p-Tolyl-vinyl)-1,2,5-trioxa-spiro[5.5]undec-9-yl]-(3-trifluoromethyl-phenyl)-amine] | – | – | – | 100% | – | 60% | – | – | –
C=C(c1ccccc1)C1COC2(CCC(Nc3ccc(-c4ccccc4)cc3)CC2)OO1 (stereo not drawn) [Compound 4ad, Biphenyl-4-yl-[3-(1-Phenyl-Vinyl)-1,2,5-Trioxa-Spiro[5.5]undec-9-yl]Amine] | – | – | 100% | 100% | 100% | 100% | 100% | 60% | inhibition in vivo at 12 mg/kg/day [9]: 99%; responders at 12 mg/kg/day [10]: 0%
C=C(c1ccc(Cl)cc1)C1COC2(CCC(Nc3cc(Cl)cc(Cl)c3)CC2)OO1 (stereo not drawn) [Compound 4ce, {3-[1-(4-Chloro-phenyl)-vinyl]-1,2,5-trioxa-spiro[5.5]undec-9-yl}-(3,5-dichloro-phenyl)-amine] | – | – | 100% | – | – | – | 100% | 40% | Mice alive on day-28 [11]: 4/5
C=C(c1ccccc1)C1COC2(CCC(Nc3ccccc3-c3ccccc3)CC2)OO1 (stereo not drawn) [Compound 4ac, Biphenyl-2-yl-[3-(1-Phenyl-Vinyl)-1,2,5-Trioxa-Spiro[5.5]undec-9-yl]Amine] | 74% | 0% | – | – | – | – | 100% | 40% | inhibition in vivo at 12 mg/kg/day [9]: 100%; responders at 12 mg/kg/day [10]: 0%; % Suppression on Day 4 [12]: 100%; Mice alive on day-28 [11]: 5/5; Mice alive on day-28 (Swiss mice, 96 mg/kg/day, oral, day 0-3): 5/5; % Suppression on Day 4 (Swiss mice, 96 mg/kg/day, oral, day 0-3, in groundnut oil): 100%
C=C(c1ccc(Cl)cc1)C1COC2(CCC(Nc3ccc(-c4ccccc4)cc3)CC2)OO1 (stereo not drawn) [Compound 4ck, Biphenyl-4-yl-{3-[1-(4-Chloro-Phenyl)-Vinyl]-1,2,5-Trioxa-Spiro[5.5]undec-9-yl}-Amine] | – | – | – | 100% | – | 40% | – | – | –
C=C(c1ccc(Cl)cc1)C1COC2(CCC(Nc3ccc(C)cc3)CC2)OO1 (stereo not drawn) [Compound 4cb, {3-[1-(4-Chloro-Phenyl)-Vinyl]-1,2,5-Trioxa-Spiro[5.5]undec-9-yl}-p-Tolyl-Amine] | – | – | 100% | – | 100% | – | – | – | –
C=C(c1ccc(Cl)cc1)C1COC2(CCC(Nc3ccccc3-c3ccccc3)CC2)OO1 (stereo not drawn) [Compound 4cj, Biphenyl-2-yl-{3-[1-(4-Chloro-Phenyl)-Vinyl]-1,2,5-Trioxa-Spiro[5.5]undec-9-yl}-Amine] | – | – | 100% | – | 100% | – | 100% | 40% | –
C=C(c1ccc(Cl)cc1)C1COC2(CCC(Nc3cccc4ccccc34)CC2)OO1 (stereo not drawn) [Compound 4ch, {3-[1-(4-Chloro-phenyl)-vinyl]-1,2,5-trioxa-spiro[5.5]undec-9-yl}-naphthalen-1-yl-amine] | – | – | – | 100% | – | 40% | – | – | –
C=C(c1ccccc1)C1COC2(CCC(Nc3ccccc3-c3ccccc3)CC2)OO1 (stereo not drawn) [Compound 4ab, Biphenyl-2-yl-[3-(1-Phenyl-Vinyl)-1,2,5-Trioxa-Spiro[5.5]undec-9-yl]Amine] | – | – | 100% | 100% | – | 100% | – | – | Mice alive on day-28 [11]: 0/5
CCO[C@H]1O[C@@H]2O[C@@]3(C)CC[C@H]4[C@H](C)CC[C@@H]([C@H]1C)[C@@]24OO3 [β-Arteether, reference compound] | – | – | – | – | – | – | – | – | Mice alive on day-28 [13]: 1/5; % Suppression on Day 4 [14]: 100%; Mice alive on day-28 (Swiss mice, 48 mg/kg/day, oral, day 0-3): 5/5; % Suppression on Day 4 [12]: 100%
C=C(c1ccc(OC)cc1)C1COC2(CCC(Nc3cccc(C(F)(F)F)c3)CC2)OO1 (stereo not drawn) [Compound 4dm, {3-[1-(4-Methoxy-Phenyl)-Vinyl]-1,2,5-Trioxa-Spiro[5.5]undec-9-yl}-(3-Trifluoromethyl-Phenyl)-Amine] | 100% | 0% | 100% | 100% | 100% | 100% | 100% | 100% | –
C=C(c1ccc(C)cc1)C1COC2(CCC(Nc3ccc(OC)cc3)CC2)OO1 (stereo not drawn) [Compound 4eb, (4-Methoxy-Phenyl)-[3-(1-p-Tolyl-Vinyl)-1,2,5-Trioxa-Spiro[5.5]undec-9-yl]-Amine] | 93% | 0% | – | 100% | – | 100% | – | – | –
C=C(c1ccc(C)cc1)C1COC2(CCC(Nc3cc(Cl)cc(Cl)c3)CC2)OO1 (stereo not drawn) [Compound 4ee, (3,5-Dichloro-Phenyl)-[3-(1-Tolyl-Vinyl)-1,2,5-Trioxa-Spiro[5.5]undec-9-yl]-Amine] | – | – | – | – | – | – | – | – | Mice alive on day-28 [13]: 0/5; % Suppression on Day 4 (Swiss mice, 24 mg/kg/day, oral, day 0-3, in groundnut oil, 24 mg/kg/day): 81%; % Suppression on Day 4 [12]: 100%; Mice alive on day-28 [11]: 2/5
C=C(c1ccc(Cl)cc1)C1COC2(CCC(Nc3cc(Cl)cc(Cl)c3)CC2)OO1 (stereo not drawn) [Compound 4cf, {3-[1-(4-Chloro-phenyl)-vinyl]-1,2,5-trioxa-spiro[5.5]undec-9-yl}-(3,5-dichloro-phenyl)-amine] | – | – | – | – | – | – | – | – | % Suppression on Day 4 [14]: 100%; Mice alive on day-28 (Swiss mice, 24 mg/kg/day, oral, day 0-3, 24 mg/kg/day): 1/5; % Suppression on Day 4 [12]: 100%; Mice alive on day-28 [11]: 2/5
CCN(CC)CCCC(C)Nc1ccnc2cc(Cl)ccc12 (stereo not drawn) [Chloroquine, reference compound] | – | – | – | – | – | – | – | – | inhibition in vivo at 24 mg/kg/day (po): 100%; inhibition in vivo at 48 mg/kg/day (po): 100%; responders at 24 mg/kg/day [15]: 0%; responders at 48 mg/kg/day [15]: 40%
C=C(c1ccccc1)C1COC2(CCC(Nc3cccc(C(F)(F)F)c3)CC2)OO1 (stereo not drawn) [Compound 4ah, [3-(1-Phenyl-Vinyl)-1,2,5-Trioxa-Spiro[5.5]undec-9-yl]-(3-Trifluoromethyl-Phenyl)-Amine] | 83% | 0% | 100% | 100% | 100% | 100% | 100% | 20% | –
C=C(c1ccc(C)cc1)C1COC2(CCC(Nc3ccc(Cl)cc3)CC2)OO1 (stereo not drawn) [Compound 4ec, (4-Chloro-Phenyl)-[3-(1-p-Tolyl-Vinyl)-1,2,5-Trioxa-Spiro[5.5]undec-9-yl]-Amine] | – | – | – | 100% | – | 100% | – | – | –
